From ChEMBL document CHEMBL4616680, “Shedding X-ray Light on the Role of Magnesium in the Activity of Mycobacterium tuberculosis Salicylate Synthase (MbtI) for Drug Design” (J Med Chem, 2020)

Test system: MRC5
Assay: Cytotoxicity in human MRC5 cells
Format: cell-based

`N#Cc1cccc(-c2ccc(C(=O)O)o2)c1` was tested, and the IC50 was > 100 µM.
